From a melting point compilation (Tetko et al.; mined from patent text by program, amines drawn as free bases though some values may be those of a salt)

| melting point | SMILES |
| --- | --- |
| 137 to 138 °C | CCCCCc1nc2c(N)nc3ccccc3c2n1CCCCNS(C)(=O)=O |
| 141 to 143 °C | CC(C)Oc1cc(-n2c(=O)cc(C(F)(F)C(F)(F)F)[nH]c2=O)c(F)cc1Cl |
| 252 to 254 °C | CCCc1cc(-c2ccc(Cl)cc2)nc2c(C(=O)Nc3cccc(S(N)(=O)=O)c3)cnn12 |
| 112 to 113 °C | COC(=O)c1ccc(-c2nc(-c3ccc(Oc4ccccc4)cc3)no2)cc1 |
| 27 to 28 °C | Cc1ccc(S(=O)(=O)OCCCCCCCl)cc1 |
| 98 to 99 °C | COc1cc(C(=O)NN2CCN(C3CCCC3)CC2)ccc1Nc1ncc2c(n1)N(C1CCCCC1)CC(F)(F)C(=O)N2C |
| 230 to 233 °C | O=[N+]([O-])c1oc2c(ccc3ccccc32)c1-c1ccc(Br)cc1 |
| 232 to 234 °C | NC(=O)c1sc2nccc(N3CCCN(c4ccc(Cl)nn4)CC3)c2c1N |
| 53 to 56 °C | COC(=O)C1=C(C)NC(C)=C(C(=O)OCCN2CCN(c3ccccn3)CC2)C1c1cccc([N+](=O)[O-])c1 (centres undefined) |
| 155 to 158 °C | N#Cc1ncc(NCCO)nc1N1CCC(c2ccc(F)cc2)CC1 |
| 93 to 97 °C | Cc1nc(Oc2ccc(F)cc2)cc(Oc2ccc(F)cc2)n1 |
| 96 to 97.5 °C | COC(=O)c1ccc(-c2ccc(OC)c(OC)c2)cc1OC |
| 123 to 125 °C | CSc1ccc(CC(NC(=O)OCc2ccccc2)C(O)C#N)cc1 (centres undefined) |
| > 250 °C | Cc1nccn1Cc1c(C(=O)O)nc2c(=O)[nH]c3cc(C(F)(F)F)ccc3n12 |
| 100 to 102 °C | COC(=O)CN(Cc1ccccc1N)S(=O)(=O)c1ccc(OC)cc1 |
| 246 to 247 °C | COc1ccccc1-n1c(=O)[nH]c2c(OC)cccc21 |
| 154 to 157 °C | CSCC(C)(CN)C(=O)N(C)c1nnc(-c2cncc(F)c2)s1 (centres undefined) |
| 219 to 223 °C | Nc1ncnc2c1c(-c1cccc(CO)c1)nn2Cc1oc2ccccc2c(=O)c1-c1ccccc1 |
| 123 to 124 °C | CCCCCCC(=O)Nc1cccc2c1C1(COc3cc4c(cc31)OCCO4)C(=O)N2C (centres undefined) |

| melting point | SMILES |
| --- | --- |
| 155 to 157 °C | CCOc1ccccc1C1=NN(C(=O)c2cccnc2)CC1 |
| 217 to 219 °C | CN1C(C(=O)Nc2nncs2)=C(O)c2ccc3ccccc3c2S1(=O)=O |
| 111 to 114 °C | CCN(CC)CCn1cc(C(=O)NCc2ccc(Cl)cc2)c(=O)c2cc(CCCO)sc21 |
| 198 to 200 °C | CC(=O)Nc1cc2c(cc1[N+](=O)[O-])OC(C)(C)[C@@H](Br)[C@@H]2O (relative stereo) |
| 90 to 95 °C | O=C(c1cc(N2CCC(F)(F)CC2)ccn1)N(O)Cc1ccccc1 |
| 175 to 177 °C | CC(C)[C@H](NC(=O)[C@H](Cc1ccccc1)NC(=O)OCc1ccccc1)[C@@H](O)c1c(-c2ccccc2)c1=O |
| 235 to 254 °C | N#Cc1ccc(C=Cc2ccc(-c3ccccc3)cc2)cc1 |
| 225 °C | Cc1ccc(C(O)c2ccc3noc(-c4cccc(Cl)c4)c3c2)cc1 (centres undefined) |
| 110 to 111 °C | CCO/C=C1\SC(=S)N(C)C1=O |
| 227 to 230 °C | COc1cc(NC(=S)NC(=O)/C=C/c2ccco2)ccc1-c1cc2ccccc2oc1=O |
| 157 to 158 °C | CC1=C(C(=O)c2ccccc2F)C(=O)C2C=CC=CC2C1=O (centres undefined) |
| 126 to 127 °C | O=S1(=O)NC[C@@H](O)c2cc(Cl)sc21 |
| 86 to 89 °C | O=c1n(CCCF)nnn1-c1ccc([N+](=O)[O-])cc1F |
| 186 to 188 °C | O=C1c2ccccc2-c2c1c(N1CCN(c3ccccn3)CC1)nc1ccc(Br)cc21 |
| 87 to 89 °C | C=CC(=O)OCCCNC(=O)CCc1cc(-n2nc3ccccc3n2)c(O)c(C(C)(C)C)c1 |
| 103 °C | CN1c2ccccc2Sc2c(C=O)cccc21 |
| 46 to 48 °C | Cc1ccc(S(=O)(=S)OCC2CC2)cc1 (centres undefined) |
| 95 to 118 °C | CC12CC(F)C3c4ccc(O)cc4CC(CCCCCN4CCCC4)C3C1CCC2O (centres undefined) |

| SMILES | melting point |
| --- | --- |
| Fc1ccc2sc(CCl)nc2c1 | 99 to 101 °C |
| O=NCNC1=Nc2ccc(Br)cc2C(c2ccccn2)=NC1 | 102 to 106 °C |
